{
  "source": "patent US20250206721A1",
  "about": "“Prostaglandin Receptor EP2 Antagonists, Derivatives, and Uses Related Thereto” (Emory University, priority 2019, published 2025)",
  "key": {"[1]": {"experiment": "Metabolite investigation in mouse liver microsomes", "type": "in vitro ADME", "conditions": "2a after 5 minutes; 3 after 20 minutes"}, "[2]": {"experiment": "Mouse liver microsomal (MLM) stability"}, "human EP4 receptor": {"target": "human EP4 receptor (Homo sapiens, UniProt P35408)", "sequence (P35408 whole entry)": "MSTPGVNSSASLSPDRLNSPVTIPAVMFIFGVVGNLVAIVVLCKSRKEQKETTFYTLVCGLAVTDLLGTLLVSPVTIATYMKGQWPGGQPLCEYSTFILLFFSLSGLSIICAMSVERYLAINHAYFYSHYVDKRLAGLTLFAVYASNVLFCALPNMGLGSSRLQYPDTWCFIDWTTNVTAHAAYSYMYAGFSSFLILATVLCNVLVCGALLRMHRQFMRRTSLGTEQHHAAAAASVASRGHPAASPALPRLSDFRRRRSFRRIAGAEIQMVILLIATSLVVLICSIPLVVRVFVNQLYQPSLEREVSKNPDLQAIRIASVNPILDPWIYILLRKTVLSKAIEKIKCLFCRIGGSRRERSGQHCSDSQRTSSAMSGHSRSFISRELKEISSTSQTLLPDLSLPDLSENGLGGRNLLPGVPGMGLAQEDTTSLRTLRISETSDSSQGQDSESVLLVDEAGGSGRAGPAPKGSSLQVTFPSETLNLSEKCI", "experiment": "Cell-based cAMP TR-FRET assay on EP4 (agonist PGE2)", "conditions": "selectivity index EP4 KB/EP2 KB, fold"}, "human IP receptor": {"target": "human IP receptor (Homo sapiens, UniProt P43119)", "sequence (P43119 whole entry)": "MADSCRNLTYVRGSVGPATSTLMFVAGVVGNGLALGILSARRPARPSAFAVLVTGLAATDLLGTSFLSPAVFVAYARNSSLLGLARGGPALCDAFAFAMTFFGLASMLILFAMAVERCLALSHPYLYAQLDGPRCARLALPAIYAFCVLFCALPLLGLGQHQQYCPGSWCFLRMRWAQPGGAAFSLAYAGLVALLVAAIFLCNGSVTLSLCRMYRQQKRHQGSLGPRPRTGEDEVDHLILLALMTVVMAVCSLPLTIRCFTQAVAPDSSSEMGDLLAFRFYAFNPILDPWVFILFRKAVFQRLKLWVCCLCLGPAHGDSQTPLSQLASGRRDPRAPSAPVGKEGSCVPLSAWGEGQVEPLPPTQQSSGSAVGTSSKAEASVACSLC", "experiment": "Cell-based cAMP TR-FRET assay on IP (agonist iloprost)", "conditions": "selectivity index IP KB/EP2 KB, fold"}, "[3]": {"experiment": "Kinetic aqueous solubility in PBS by nephelometry", "conditions": "for Aqueous Solubility: PBS buffer (pH 7.4) with 1% DMSO, nephelometry"}, "physchem [4]": {"experiment": "physchem", "conditions": "pH 2, simulated gastric fluid, kinetic from dmso stock"}, "human DP1 receptor": {"target": "T1, human DP1 receptor (Homo sapiens, UniProt Q13258)", "T1 sequence (Q13258 1-359)": "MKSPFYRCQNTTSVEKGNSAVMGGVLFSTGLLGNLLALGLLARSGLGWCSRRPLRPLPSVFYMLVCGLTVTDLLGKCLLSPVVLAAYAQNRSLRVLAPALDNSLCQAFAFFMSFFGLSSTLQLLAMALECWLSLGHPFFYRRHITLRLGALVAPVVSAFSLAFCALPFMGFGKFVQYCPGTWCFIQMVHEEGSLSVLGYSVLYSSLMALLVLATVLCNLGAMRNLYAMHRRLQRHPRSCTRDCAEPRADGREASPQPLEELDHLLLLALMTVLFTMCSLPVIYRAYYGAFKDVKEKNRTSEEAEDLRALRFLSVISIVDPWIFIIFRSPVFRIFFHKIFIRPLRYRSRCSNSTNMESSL", "conditions": "selectivity index DP1 KB/EP2 KB, fold"}, "[5]": {"conditions": "mouse"}, "human EP2 receptor": {"target": "T2, human EP2 receptor (Homo sapiens, UniProt P43116)", "T2 construct": "expressed in transfected cells", "T2 sequence (P43116 whole entry)": "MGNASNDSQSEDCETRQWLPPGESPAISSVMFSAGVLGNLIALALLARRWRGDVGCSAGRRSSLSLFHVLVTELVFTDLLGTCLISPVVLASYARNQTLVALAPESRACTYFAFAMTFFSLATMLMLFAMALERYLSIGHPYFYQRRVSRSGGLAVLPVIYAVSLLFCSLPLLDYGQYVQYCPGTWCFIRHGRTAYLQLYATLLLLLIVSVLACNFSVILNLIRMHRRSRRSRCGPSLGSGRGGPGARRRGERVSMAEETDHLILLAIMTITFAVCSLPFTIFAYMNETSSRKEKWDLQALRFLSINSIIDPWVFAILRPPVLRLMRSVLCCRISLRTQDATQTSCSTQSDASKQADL", "experiment": "Cell-based cAMP TR-FRET assay, Schild KB on EP2", "conditions": "for Kb: Schild KB, agonist PGE2, antagonist concentration 1 μM, C6G cells expressing human EP2"}, "[6]": {"conditions": "mouse", "remark": "listed apart in the source"}, "[7]": {"experiment": "Solubility in simulated gastric fluid (SGF) by nephelometry"}, "C6glioma cells": {"tested_on": "C6glioma cells", "conditions": "rat"}, "[8]": {"conditions": "pH 7.4"}, "[9]": {"experiment": "Thermodynamic shake flask solubility in neat water"}, "in vitro": {"experiment": "in vitro", "conditions": "mouse, pooled liver microsomes"}, "physchem [10]": {"experiment": "physchem", "conditions": "water, thermodynamic from solid"}},
  "note": "Where a name gives a salt, the structure may show the parent alone. Read-outs that look alike come from different tables or passages of the source.",
  "data": [
    {"compound": "Cc1[nH]c2ccccc2c1CCNC(=O)c1ccc(-c2nnn[nH]2)cc1", "note": "[Compound 3]", "values": [
      {"measurement": "half-life", "setting": "in vivo; mouse, po, 10 mg/kg", "value": "> 6", "unit": "h"},
      {"measurement": "metabolites after incubation in mouse liver microsomes", "setting": "[1]", "value": "did not produce any fragments even after 20 minutes of incubation"},
      {"measurement": "MLMt1/2", "setting": "[2]; 1 μM compound, 0.5 mg/mL liver microsomes (compounds 1 and 3)", "value": ">60", "unit": "min"}
    ]},
    {"compound": "COc1ccccc1-c1ncc(C(=O)NCCc2c(C)[nH]c3ccccc23)cn1", "note": "[Compound 14a, 2-(2-Methoxyphenyl)-N-(2-(2-methyl-1H-indol-3-yl)ethyl)pyrimidine-5-carboxamide]", "values": [
      {"measurement": "half-life", "setting": "in vivo; C57BL/6, mouse, ip, 10 mg/kg", "value": "< 1", "unit": "h"},
      {"measurement": "S.I (EP4/EP2)", "setting": "human EP4 receptor", "value": 517},
      {"measurement": "S.I (IP/EP2)", "setting": "human IP receptor", "value": 730},
      {"measurement": "Aqueous Solubility", "setting": "[3]", "value": 71, "unit": "µM"},
      {"measurement": "solubility", "setting": "physchem [4]", "value": "> 100", "unit": "µM"}
    ]},
    {"compound": "Cc1[nH]c2ccccc2c1CCNC(=O)c1cnc(Nc2ccccn2)nc1", "note": "[Compound 20a, N-(2-(2-Methyl-1H-indol-3-yl)ethyl)-2-(pyridin-2-ylamino)pyrimidine-5-carboxamide]", "values": [
      {"measurement": "S.I (IP/EP2)", "setting": "human IP receptor", "value": ">900"},
      {"measurement": "Aqueous Solubility", "setting": "[3]", "value": 27, "unit": "µM"},
      {"measurement": "S.I. (DP1/EP2)", "setting": "human DP1 receptor", "value": ">900"}
    ]},
    {"compound": "Cc1ccnc(Nc2ncc(C(=O)NCCc3c(C)[nH]c4ccccc34)cn2)c1", "note": "[Compound 20b, N-(2-(2-Methyl-1H-indol-3-yl)ethyl)-2-((4-methylpyridin-2-yl)amino)pyramidine-5-carboxamide]", "values": [
      {"measurement": "Aqueous Solubility", "setting": "[3]", "value": 25, "unit": "µM"},
      {"measurement": "MLM T½", "setting": "[2]; 1 μM compound, 0.125 mg/mL liver microsomes, NADPH", "value": 8, "unit": "min"}
    ]},
    {"compound": "Cc1[nH]c2ccccc2c1CCNC(=O)c1cnc(Nc2cc(F)ccn2)nc1", "note": "[Compound 20c, 2-((4-Fluoropyridin-2-yl)amino)-N-(2-(2-methyl-1H-indol-3-yl)ethyl)pyrimidine-5-carboxamide]", "values": [
      {"measurement": "S.I (EP4/EP2)", "setting": "human EP4 receptor", "value": ">1500"},
      {"measurement": "S.I (IP/EP2)", "setting": "human IP receptor", "value": ">1500"},
      {"measurement": "stability in vivo", "setting": "[5]", "value": "unstable in vivo"},
      {"measurement": "Aqueous Solubility", "setting": "[3]", "value": 15, "unit": "µM"}
    ]},
    {"compound": "Cc1[nH]c2ccccc2c1CCNC(=O)c1cnc(Nc2cccc(F)n2)nc1", "note": "[Compound 20f, 2-((6-Fluoropyridin-2-yl)amino)-N-(2-(2-methyl-1H-indol-3-yl)ethyl)pyrimidine-5-carboxamide]", "values": [
      {"measurement": "Aqueous Solubility", "setting": "[3]", "value": 41, "unit": "µM"},
      {"measurement": "fold higher half-life in liver microsomes", "setting": "[2]; 24i vs 20o, 20c vs 20b, 20f vs 20e", "value": 8, "unit": "fold"}
    ]},
    {"compound": "COc1cccc(Nc2ncc(C(=O)NCCc3c(C)[nH]c4ccccc34)cn2)n1", "note": "[Compound 20h, 2-((6-Methoxypyridin-2-yl)amino)-N-(2-(2-methyl-1H-indol-3-yl)ethyl)pyrimidine-5-carboxamide]", "values": [
      {"measurement": "S.I (IP/EP2)", "setting": "human IP receptor", "value": ">1280"},
      {"measurement": "Aqueous Solubility", "setting": "[3]", "value": 15, "unit": "µM"},
      {"measurement": "S.I. (DP1/EP2)", "setting": "human DP1 receptor", "value": ">1280"},
      {"measurement": "Kb", "setting": "human EP2 receptor", "value": 7.8, "unit": "nM"}
    ]},
    {"compound": "Cc1cc(C)nc(Nc2ncc(C(=O)NCCc3c(C)[nH]c4ccccc34)cn2)c1", "note": "[Compound 20o, 2-((4,6-Dimethylpyridin-2-yl)amino)-N-(2-(2-methyl-1H-indol-3-yl)ethyl)pyrimidine-5-carboxamide]", "values": [
      {"measurement": "bioavailability", "setting": "in vivo; mouse, po", "value": 25, "unit": "%"},
      {"measurement": "MLMt1/2", "setting": "[6]", "value": 17, "unit": "min"},
      {"measurement": "Aqueous solubility of corresponding HCl salt in SGF", "setting": "[7]; HCl salt, simulated gastric fluid pH 2.0, nephelometry", "value": ">250", "unit": "µM"},
      {"measurement": "solubility", "setting": "[7]; pH 2, simulated gastric fluid, kinetic from dmso stock", "value": "> 100", "unit": "µM"},
      {"measurement": "CC50", "setting": "C6glioma cells", "value": "> 50000", "unit": "nM"},
      {"measurement": "substrate of efflux pumps", "setting": "MDR1-MDCK cell line", "value": "not the substrate of efflux pumps"},
      {"measurement": "Permeability across MDR1-MDCK cell line, A-B", "setting": "MDR1-MDCK cell line; dog", "value": "A-B: 13.2 × 10^−6 cm/s"},
      {"measurement": "Permeability across MDR1-MDCK cell line, B-A", "setting": "MDR1-MDCK cell line; dog", "value": "B-A: 22.2 × 10^−6 cm/s"},
      {"measurement": "Aqueous Solubility", "setting": "[8]", "value": 15, "unit": "µM"}
    ]},
    {"compound": "Cc1cc(C)nc(Nc2ncc(C(=O)NCCc3c(C)[nH]c4ccccc34)cn2)c1", "note": "[Compound 20o.HCl, 2-((4,6-Dimethylpyridin-2-yl)amino)-N-(2-(2-methyl-1H-indol-3-yl)ethyl)pyrimidine-5-carboxamide.Hydrochloride]", "values": [
      {"measurement": "water pH after dissolving", "setting": "[9]; 2 mg/mL in neat water, starting pH 6.4", "value": 3.5},
      {"measurement": "water solubility", "setting": "[9]; thermodynamic solubility in water, HCl salts", "value": 1000, "unit": "µg/mL"},
      {"measurement": "solubility", "setting": "[9]; water, thermodynamic from solid", "value": "1100 to 1200", "unit": "µg/mL"}
    ]},
    {"compound": "Cc1cc(C)nc(Nc2ncc(C(=O)NCCc3c(C)[nH]c4c(F)cccc34)cn2)c1", "note": "[Compound 24aa, 2-((4,6-dimethylpyridin-2-yl)amino)-N-(2-(7-fluoro-2-methyl-1H-indol-3-yl)ethyl)pyrimidine-5-carboxamide]", "values": [
      {"measurement": "half-life at 1 μM", "setting": "in vitro", "value": 0.383, "unit": "h"},
      {"measurement": "Kp at 0.5 h", "setting": "in vivo; C57BL/6, mouse", "value": 0.4},
      {"measurement": "half-life", "setting": "in vivo; mouse, ip, 20 mg/kg", "value": 5.4, "unit": "h"},
      {"measurement": "solubility", "setting": "[3]; PBS with 1% DMSO, pH 7.4, aqueous buffer, kinetic from dmso stock", "value": 150, "unit": "µM"},
      {"measurement": "solubility", "setting": "physchem [4]", "value": "> 250", "unit": "µM"},
      {"measurement": "solubility", "setting": "physchem [10]", "value": "1100 to 1200", "unit": "µg/mL"},
      {"measurement": "solubility at 24 h", "setting": "physchem [10]", "value": 2640, "unit": "µM"},
      {"measurement": "Kb", "setting": "human EP2 receptor", "value": 1.7, "unit": "nM"},
      {"measurement": "MLMt1/2", "setting": "[2]; 1 μM compound, 0.125 mg/mL liver microsomes (Table 7)", "value": 23, "unit": "min"}
    ]},
    {"compound": "Cc1cc(C)nc(Nc2ncc(C(=O)NCCc3c(C)[nH]c4c(F)cc(F)cc34)cn2)c1", "note": "[Compound 24c, N-(2-(5,7-Difluoro-2-methyl-1H-indol-3-yl)ethyl)-2-((4,6-dimethylpyridin-2-yl)amino)pyrimidine-5-carboxamide]", "values": [
      {"measurement": "S.I (IP/EP2)", "setting": "human IP receptor", "value": ">500"},
      {"measurement": "solubility", "setting": "physchem [4]", "value": "> 100", "unit": "µM"},
      {"measurement": "Kb", "setting": "human EP2 receptor", "value": 20, "unit": "nM"}
    ]},
    {"compound": "Cc1[nH]c2ccccc2c1CCNC(=O)c1ccc(-c2cnc[nH]2)cc1", "note": "[TG8-260, 4-(1H-imidazol-5-yl)-N-(2-(2-methyl-1H-indol-3-yl)ethyl)benzamide]", "values": [
      {"measurement": "S.I (EP4/EP2)", "setting": "human EP4 receptor", "value": "at least 300"},
      {"measurement": "S.I (IP/EP2)", "setting": "human IP receptor", "value": "at least 300"},
      {"measurement": "S.I. (DP1/EP2)", "setting": "human DP1 receptor", "value": "at least 300"},
      {"measurement": "inhibition of PGE2-induced human EP2 receptor activation", "setting": "human EP2 receptor; concentration-response, in words", "value": "inhibits PGE2-induced human EP2 receptor activation in a concentration dependent manner"}
    ]},
    {"compound": "COc1cccc2c1C(=O)c1c(O)c3c(c(O)c1C2=O)C[C@@](O)(C(=O)CO)C[C@@H]3O[C@H]1C[C@H](N)[C@H](O)[C@H](C)O1", "note": "[doxorubucin, reference compound]", "values": [
      {"measurement": "CC50", "setting": "C6glioma cells", "value": 900, "unit": "nM"}
    ]}
  ]
}
